From US20210300908A1, “S1P1 AGONIST AND APPLICATION THEREOF” (SHIJIAZHUANG SAGACITY SRUG SEVELOPMENT CO., LTD., priority 2016, published 2021)

Key:
[1] = target: S1P1 receptor (Homo sapiens, UniProt P21453); assay: S1P1 receptor agonistic activity (PathHunter cell strain, chemiluminescent signal detection); assay type: cell-based; conditions: PathHunter cells, agonist mode, 37° C. 90-180 minutes
Description: Test Method: […] Cell Processing i) Thaw the PathHunter cell strain according to the standard procedures. ii) Seed the cell in the 20 μL 384-microwell plate and incubate at 37° C. for an appropriate period. 2. Agonist i) For agonist testing, cells were incubated with the sample to be test to initiate a reaction; ii) The stock solution to be tested has been diluted 5 folds to be a buffer solution; iii) Inject the 5-fold diluted solution (5 μL) into the cells and incubate at 37° C. for 90-180 minutes. […] 3. Signal Detection i) Add 12.5 μL or 15 μL PathHunter detection reagent (50 vol. %) in one portion. Then, incubate at room temperature for 1 hour and generate the detection signal; ii) Use PerkinElmer Evision™ instrument to read the microwell plate to proceed with chemiluminescent signal detection. 4. Data Analysis i) Use CBIS data analysis system for the compound activity analysis. ii) Calculation formula: […]

[2] = Evaluation of compound pharmacokinetics in SD rats (intravenous injection and oral administration); assay type: in vivo; conditions: male, Sprague Dawley, rat, plasma, 2 mg/kg, 2 mpk; for clearance: read-out: Clearance rate; for AUC: read-out: Drug concentration integral: AUC; for half-life: read-out: Half-life period: T1/2 (converted); for bioavailability: oral, read-out: Fraction of bioavailability: F
Description: Aim of the experiments: To test pharmacokinetics of the compounds in SD rats. Experimental Materials: Sprague Dawley rats (male, 200-300 g, 7-9 weeks old, Shanghai Slack) Experimental Procedure: The rodent pharmacokinetic characteristics of the compounds after intravenous injection and oral administration were tested by the standard protocol. In the experiments, the transparent solution was prepared with the compounds to be test. The rats were administered single intravenous injection and oral administration. The solvent for intravenous injection and oral administration was aqueous hydroxypropyl β-cyclodextrin solution or normal saline solution with a certain concentration. Collect the blood samples within 24 hours and centrifuge at 3000 G for 15 minutes. Separate the supernatant to obtain the plasma samples. A volume of acetonitrile solution containing internal standard was added 4 times as the sample to precipitate the protein. The supernatant was obtained after centrifuge. An equal volume of water was added and then centrifuge again to collect the supernatant. The LC-MS/MS method was used to quantitatively analyze the blood drug concentration and the pharmacokinetic parameters such as peak concentration, peak time, clearance rate, half-life period, area under the curve of the drug concentration, and fraction of bioavailability, etc. were calculated.

Sequence of S1P1 receptor (P21453 whole entry): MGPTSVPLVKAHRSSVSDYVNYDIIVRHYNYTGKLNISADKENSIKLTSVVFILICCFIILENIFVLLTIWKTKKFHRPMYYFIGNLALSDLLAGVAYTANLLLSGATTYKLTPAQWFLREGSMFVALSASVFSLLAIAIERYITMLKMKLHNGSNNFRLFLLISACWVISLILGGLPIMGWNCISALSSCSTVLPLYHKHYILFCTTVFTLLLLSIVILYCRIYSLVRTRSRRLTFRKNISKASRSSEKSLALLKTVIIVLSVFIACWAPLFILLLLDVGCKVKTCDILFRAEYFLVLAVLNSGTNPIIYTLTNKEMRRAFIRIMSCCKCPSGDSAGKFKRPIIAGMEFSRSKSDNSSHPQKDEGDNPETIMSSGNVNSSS

| Compound | EC50 [1] | further results |
| --- | --- | --- |
| CC(C)Oc1ccc(-c2nc(-c3cccc4c3C[C@@H]3OC(=O)N(CCO)[C@H]43)no2)cc1C#N (relative stereo) [Example 50] | < 10 nM | clearance [2]: 6.59 mL/min/kg; AUC [2]: 8.52 µM·h; half-life [2]: 4.82 h; bioavailability [2]: 72.4% |
| CC(C)Oc1ccc(-c2nc(-c3cccc4c3CC3CC(=O)N(CCO)C43)no2)cc1C#N (stereo not shown) [Example 1 Mixture] | < 10 nM | – |
| CC(C)Oc1ccc(-c2ncc(-c3cccc4c3CC3CC(=O)N(CCO)C43)s2)cc1C#N (stereo not shown) [Example 2] | < 10 nM | – |
| CC(C)Oc1ccc(-c2nnc(-c3cccc4c3CC3CC(=O)N(CCO)C43)s2)cc1C#N (stereo not shown) [Example 3] | < 10 nM | – |
| CC(C)Oc1ccc(-c2ncc(-c3cccc4c3CC3CC(=O)N(CCO)C43)o2)cc1C#N (stereo not shown) [Example 4] | < 10 nM | – |
| CC(C)Oc1ccc(-c2ccc(-c3cccc4c3CC3CC(=O)N(CCO)C43)s2)cc1C#N (stereo not shown) [Example 5] | < 10 nM | – |
| CC(C)Oc1ccc(-c2nc(-c3cccc4c3CC3CC(=O)N(CCO)C43)ns2)cc1C#N (stereo not shown) [Example 6] | < 10 nM | – |
| CC(C)Oc1ccc(-c2nsc(-c3cccc4c3CC3CC(=O)N(CCO)C43)n2)cc1C#N (stereo not shown) [Example 7] | < 10 nM | – |
| CC(C)Oc1ccc(-c2nc(-c3cccc4c3CC3CC(=O)N(CCC(=O)O)C43)no2)cc1C#N (stereo not shown) [Example 9] | < 10 nM | – |
| CC(C)Oc1ccc(-c2nc(-c3cccc4c3CC3CC(=O)N(CCCC(=O)O)C43)no2)cc1C#N (stereo not shown) [Example 10] | < 10 nM | – |
| CC(C)Oc1ccc(-c2nc(-c3cccc4c3CC3CC(=O)N(CCCCC(=O)O)C43)no2)cc1C#N (stereo not shown) [Example 11] | < 10 nM | – |
| COCCN1C(=O)CC2Cc3c(-c4noc(-c5ccc(OC(C)C)c(C#N)c5)n4)cccc3C21 (stereo not shown) [Example 12] | < 10 nM | – |
| CC(C)Oc1ccc(-c2nc(-c3cccc4c3CC3CC(=O)N(CCS(C)(=O)=O)C43)no2)cc1C#N (stereo not shown) [Example 13] | < 10 nM | – |
| CC(C)Oc1ccc(-c2nc(-c3cccc4c3CC3CC(=O)N(CC(O)CO)C43)no2)cc1C#N (stereo not shown) [Example 14] | < 10 nM | clearance [2]: 7.22 mL/min/kg; AUC [2]: 5.76 µM·h; half-life [2]: 3.27 h; bioavailability [2]: 59% |
| CC(C)Oc1ccc(-c2nc(-c3cccc4c3CC3CC(=O)N(CC(=O)N(C)C)C43)no2)cc1C#N (stereo not shown) [Example 15] | 10 to 100 nM | – |
| O=C1CC2Cc3c(-c4noc(-c5ccc(OC(F)F)cc5)n4)cccc3C2N1CCO (stereo not shown) [Example 16] | > 100 nM | – |
| N#Cc1cccc(-c2nc(-c3cccc4c3CC3CC(=O)N(CCO)C43)no2)c1 (stereo not shown) [Example 17] | > 100 nM | – |
| COc1ccc(-c2nc(-c3cccc4c3CC3CC(=O)N(CCO)C43)no2)cc1 (stereo not shown) [Example 18] | > 100 nM | – |
| O=C1CC2Cc3c(-c4noc(-c5ccc(OC(F)(F)F)cc5)n4)cccc3C2N1CCO (stereo not shown) [Example 19] | > 100 nM | – |
| CC(C)Oc1cccc(-c2nc(-c3cccc4c3CC3CC(=O)N(CCO)C43)no2)c1 (stereo not shown) [Example 20] | > 100 nM | – |
| O=C1CC2Cc3c(-c4noc(-c5ccc(OC6CC6)cc5)n4)cccc3C2N1CCO (stereo not shown) [Example 21] | > 100 nM | – |
| CC(C)Oc1ccccc1-c1nc(-c2cccc3c2CC2CC(=O)N(CCO)C32)no1 (stereo not shown) [Example 22] | > 100 nM | – |
| O=C1CC2Cc3c(-c4noc(-c5ccc(OCC6CC6)cc5)n4)cccc3C2N1CCO (stereo not shown) [Example 23] | > 100 nM | – |
| COCOc1ccc(-c2nc(-c3cccc4c3CC3CC(=O)N(CCO)C43)no2)cc1 (stereo not shown) [Example 24] | > 100 nM | – |
| CC(C)Oc1ccc(-c2nc(-c3cccc4c3CC3CC(=O)N(CCO)C43)no2)cc1Br (stereo not shown) [Example 25] | < 10 nM | – |
| CC(C)Oc1ccc(-c2nc(-c3cccc4c3CC3CC(=O)N(CCO)C43)no2)cc1Cl (stereo not shown) [Example 26] | < 10 nM | clearance [2]: 7.5 mL/min/kg; AUC [2]: 4.35 µM·h; half-life [2]: 26.7 h; bioavailability [2]: 88.2% |
| CC(C)Oc1ccc(-c2nc(-c3cccc4c3CC3CC(=O)N(CCO)C43)no2)cc1C(F)F (stereo not shown) [Example 27] | < 10 nM | clearance [2]: 8.86 mL/min/kg; AUC [2]: 4.78 µM·h; half-life [2]: 21.2 h; bioavailability [2]: 92.6% |
| CN(C)CCOc1ccc(-c2nc(-c3cccc4c3CC3CC(=O)N(CCO)C43)no2)cc1 (stereo not shown) [Example 28] | > 100 nM | – |

| Compound | EC50 [1] | further results |
| --- | --- | --- |
| Cc1nc(C)c(-c2nc(-c3cccc4c3CC3CC(=O)N(CCO)C43)no2)o1 (stereo not shown) [Example 29] | > 100 nM | – |
| CCCc1nnsc1-c1nc(-c2cccc3c2CC2CC(=O)N(CCO)C32)no1 (stereo not shown) [Example 30] | > 100 nM | – |
| O=C1CC2Cc3c(-c4noc(-c5nc6ccccn6c5F)n4)cccc3C2N1CCO (stereo not shown) [Example 31] | > 100 nM | – |
| O=C1CC2Cc3c(-c4noc(-c5csc(-c6ccccc6)n5)n4)cccc3C2N1CCO (stereo not shown) [Example 32] | > 100 nM | – |
| CN1CCc2nc(-c3nc(-c4cccc5c4CC4CC(=O)N(CCO)C54)no3)sc2C1 (stereo not shown) [Example 33] | > 100 nM | – |
| CC(C)c1ncc(-c2nc(-c3cccc4c3CC3CC(=O)N(CCO)C43)no2)s1 (stereo not shown) [Example 34] | > 100 nM | – |
| O=C1CC2Cc3c(-c4noc(-c5cnc6ncccn56)n4)cccc3C2N1CCO (stereo not shown) [Example 35 Compound 35-2] | > 100 nM | – |
| O=C1CC2Cc3c(-c4noc(-c5cn6cccnc6n5)n4)cccc3C2N1CCO (stereo not shown) [Example 35 Compound 35-3] | > 100 nM | – |
| O=C1CC2Cc3c(-c4noc(-c5cn6c(n5)CCCC6)n4)cccc3C2N1CCO (stereo not shown) [Example 36] | > 100 nM | – |
| O=C1CC2Cc3c(-c4noc(-c5cc(-c6nccs6)on5)n4)cccc3C2N1CCO (stereo not shown) [Example 37] | > 100 nM | – |
| O=C1CC2Cc3c(-c4noc(-c5cn(Cc6ccccc6)nn5)n4)cccc3C2N1CCO (stereo not shown) [Example 38] | > 100 nM | – |
| CC(C)Oc1ccc(-c2nc(-c3cccc4c3CC3CC(=O)N(CCO)C43)no2)cc1 (stereo not shown) [Example 39] | 10 to 100 nM | – |
| CC(C)Oc1ccc(-c2nc(-c3cccc4c3CC3CC(=O)N(CCO)C43)no2)cc1OC(F)F (stereo not shown) [Example 40] | < 10 nM | clearance [2]: 14.1 mL/min/kg; AUC [2]: 0.444 µM·h; half-life [2]: 10.7 h; bioavailability [2]: 82.3% |
| CC(C)Oc1ccc(-c2nc(-c3cccc4c3CC3CC(=O)N(CCO)C43)no2)cc1OCCN(C)C (stereo not shown) [Example 41] | > 100 nM | – |
| CC(C)Oc1ccc(-c2nc(-c3cccc4c3CC3CC(=O)N(CCO)C43)no2)c(C#N)c1 (stereo not shown) [Example 42] | > 100 nM | – |
| CC(C)Oc1ccc(-c2nc(-c3cccc4c3CC3CC(=O)N(CCO)C43)no2)cc1S(C)(=O)=O (stereo not shown) [Example 43] | 10 to 100 nM | – |
| COc1cc(-c2nc(-c3cccc4c3CC3CC(=O)N(CCO)C43)no2)cc(C2CCCC2)n1 (stereo not shown) [Example 44] | 10 to 100 nM | – |
| CC(C)Oc1ccc(-c2nc(-c3cccc4c3CC3CCC(=O)N(CCO)C43)no2)cc1C#N (stereo not shown) [Example 45] | < 10 nM | – |
| CC(C)Oc1ccc(-c2nc(-c3cccc4c3CCC3CC(=O)N(CCO)C43)no2)cc1C#N (stereo not shown) [Example 46] | < 10 nM | – |
| CC(C)Oc1ccc(-c2nc(-c3cccc4c3CC3CC(=O)N(CCOS(=O)(=O)O)[C@H]43)no2)cc1C#N (stereo partly shown) [Example 47] | < 10 nM | – |
| CC(C)Oc1ccc(-c2nc(-c3cccc4c3CC3CCN(CCO)C43)no2)cc1C#N (stereo not shown) [Example 49] | 10 to 100 nM | – |
| CC(C)Oc1ccc(-c2nnc(-c3cccc4c3C[C@@H]3CC(=O)N(CCO)[C@H]43)o2)cc1C#N [Example 51] | < 10 nM | – |
| CC(C)Oc1ccc(-c2nc(-c3cccc4c3CC3CCN(CC(=O)O)C43)no2)cc1C#N (stereo not shown) [Example 52] | < 10 nM | – |
| CC(C)Oc1ccc(-c2nc(-c3cccc4c3C[C@@H]3CCN(C5CC(C(=O)O)C5)C43)no2)cc1C#N (stereo partly shown) [Example 53] | < 10 nM | – |
| CC(C)Oc1ccc(-c2nc(-c3cccc4c3CC3CC(=O)N(CCO)[C@H]43)n[nH]2)cc1C#N (stereo partly shown) [Example 54] | 10 to 100 nM | – |
| CC(C)Oc1ccc(-c2nc(-c3cccc4c3C[C@@H]3CC(=O)N([C@@H](CO)C(C)C)C43)no2)cc1C#N (stereo partly shown) [Example 55] | 10 to 100 nM | – |
| CC(C)Oc1ccc(-c2nc(-c3cccc4c3C[C@@H]3CC(=O)N([C@H](C)CO)C43)no2)cc1C#N (stereo partly shown) [Example 56] | < 10 nM | clearance [2]: 14.6 mL/min/kg; AUC [2]: 3.32 µM·h; half-life [2]: 1.63 h; bioavailability [2]: 66.7% |
